# According to article PMC5035034, “Carbohydrate-Binding Non-Peptidic Pradimicins for the Treatment of Acute Sleeping Sickness in Murine Models” (PLoS Pathogens, 2016):
# Target: T1, VSG221 (variant surface glycoprotein 221, MITat 1.2) (Trypanosoma brucei, UniProt P26332)
# T1 construct: soluble form VSG (sVSG) purified from parental bloodstream forms, N-glycosylated (Asn263, Asn428)
# Experiment: SPR (Biacore T200) on immobilized VSG221, […]
# Type: binding
compound,measurement,value
"CN[C@@H]1[C@H](O[C@@H]2OC[C@@H](O)[C@H](O)[C@H]2O)[C@@H](O)[C@H](O[C@H]2c3cc(C)c(C(=O)N[C@H](C)C(=O)O)c(O)c3-c3c(cc4c(c3O)C(=O)c3cc(OC)cc(O)c3C4=O)[C@@H]2O)O[C@@H]1C [PRM-A, pradimicin A]","SPR (Biacore T200) on immobilized VSG221, 1.56 to 50 uM","using the high-density parental Tb BSF VSG221 sensorchip, concentration-dependent binding of PRM-A could be observed"
